Data published in US9023789B2, “Amylin analogs and pharmaceutical compositions thereof” (Novo Nordisk A/S, priority 2012, dated 2015).
Numbered stars: 1 amine (or outer) side, 2 acyl side, 3 side chain; on linkers, the order of the positions; unused ones are H or OH. Bridge positions count the residues as written; N and C are the ends. Side chains are listed from the residue outwards. Peptide text beside a SMILES is read from it. * marks the point of attachment. C20 diacid = O=C(O)CCCCCCCCCCCCCCCCCCC(=O)*; γGlu = O=C(O)[C@H](CCC(=O)[*:2])N[*:1]; AEEA = NCCOCCOCC(=O)O

How the values were obtained:
[1] = target: T1, human amylin receptor (membranes from Amylin 3(a)/CRE-luc cells) (Homo sapiens, UniProt O60896+P30988); experiment: ASSAY (V) binding to the human amylin receptor (SPA, 125I-rat amylin);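 note: competition binding of cell membranes (35 ng/µL) mixed with SPA beads in 384-well plates at 40 µL total volume, read by scintillation counting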
T1 construct: expressed in transfected cells
T1 sequence (P30988 25-474): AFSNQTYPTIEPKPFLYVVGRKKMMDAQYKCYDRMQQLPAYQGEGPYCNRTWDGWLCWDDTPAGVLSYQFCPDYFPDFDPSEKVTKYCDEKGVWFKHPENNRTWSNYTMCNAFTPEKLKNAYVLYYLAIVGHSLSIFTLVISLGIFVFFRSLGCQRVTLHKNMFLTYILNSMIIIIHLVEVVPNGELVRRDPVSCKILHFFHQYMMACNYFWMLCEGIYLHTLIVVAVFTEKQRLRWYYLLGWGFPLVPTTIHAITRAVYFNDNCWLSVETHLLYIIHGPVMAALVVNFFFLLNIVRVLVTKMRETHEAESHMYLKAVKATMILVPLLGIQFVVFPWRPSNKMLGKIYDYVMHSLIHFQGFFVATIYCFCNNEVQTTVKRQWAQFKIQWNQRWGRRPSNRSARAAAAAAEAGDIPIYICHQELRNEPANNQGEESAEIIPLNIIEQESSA
T1 sequence (O60896 24-148 partner): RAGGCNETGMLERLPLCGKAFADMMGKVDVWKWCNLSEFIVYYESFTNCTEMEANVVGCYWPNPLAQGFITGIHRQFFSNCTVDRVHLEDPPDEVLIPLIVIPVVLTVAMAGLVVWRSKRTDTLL

[2] = ASSAY (III) ThT fibrillation assay for physical stability; type: physicochemical
Summary of the method: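 Formulations with 1 μM ThT, pH adjusted as required, incubated at 37 °C with 960 rpm orbital shaking; fluorescence (ex 444/em 485 nm) read every 20 min. Fibrillation reported as mean ThT fluorescence ± SD of 4–8 replicates at time points; polypeptide concentration measured by reverse-phase HPLC before and after, post-centrifugation.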

[3] = Table 5, selectivity, hCTR bind IC50 / hAmylin-R bind IC50
[4] = Table 5a, selectivity, hCTR bind IC50 / hAmylin-R bind IC50
[5] = Table 7, human binding selectivity, included for comparison
[6] = Table 7a (preferred compounds), human binding selectivity, included for comparison
[7] = ratio of human calcitonin receptor binding IC50 to human amylin receptor binding IC50
[8] = Table 5b, selectivity, hCTR bind IC50 / hAmylin-R bind IC50
[9] = Table 5c, selectivity, hCTR bind IC50 / hAmylin-R bind IC50

| Ratio hCT/hAmylin binding [1, 3] | Ratio hCT/hAmylin binding [1, 4] | Ratio hCT/hAmylin binding [1, 5] | Ratio hCT/hAmylin binding [1, 6] | Ratio hCT/hAmylin binding [1, 7] | ThT pH 4.0 lag time (h) [2] [h] | Ratio hCT/hAmylin binding [1, 8] | SMILES | Ratio hCT/hAmylin binding [1, 9] |
| --- | --- | --- | --- | --- | --- | --- | --- | --- |
| 13.9 | 13.9 | 13.9 | 13.9 | 13.9 | 16 | – | CC[C@H](C)[C@H](NC(=O)[C@H](C)NC(=O)CNC(=O)[C@H](Cc1ccccc1)NC(=O)[C@H](CC(N)=O)NC(=O)[C@@H]1CCCN1C(=O)[C@H](CO)NC(=O)[C@H](CO)NC(=O)[C@H](Cc1c[nH]cn1)NC(=O)[C@H](CCCNC(=N)N)NC(=O)[C@H](CC(C)C)NC(=O)[C@H](Cc1ccccc1)NC(=O)[C@H](CC(N)=O)NC(=O)[C@H](C)NC(=O)[C@H](CC(C)C)NC(=O)[C@H](CCCNC(=N)N)NC(=O)[C@H](CCC(N)=O)NC(=O)[C@@H](NC(=O)[C@H](C)NC(=O)[C@@H]1CSSC[C@H](NC(=O)[C@H](CCCCN)NC(=O)CC[C@H](NC(=O)CCCCCCCCCCCCCCCCCCC(=O)O)C(=O)O)C(=O)N[C@@H](CC(N)=O)C(=O)N[C@@H]([C@@H](C)O)C(=O)N[C@@H](C)C(=O)N[C@@H]([C@@H](C)O)C(=O)N1)[C@@H](C)O)C(=O)N1CCC[C@H]1C(=O)N[C@@H](CO)C(=O)N[C@@H](CO)C(=O)N[C@H](C(=O)N[C@@H](CC(N)=O)C(=O)N[C@H](C(=O)NCC(=O)N1CCC[C@H]1C(=O)N[C@@H](CCC(=O)O)C(=O)N[C@H](C(=O)N[C@@H](Cc1ccc(O)cc1)C(N)=O)[C@@H](C)O)C(C)C)[C@@H](C)O [Example 29] ({C20 diacid-γGlu}-KCNTATCATQRLANFLRHSSPNFGAIPSSTNVGPETY-NH2; disulfide 2-7) | – |
| 42.6 | 42.6 | 42.6 | 42.6 | 42.6 | 22 | 42.6 | CC[C@H](C)[C@H](NC(=O)[C@H](C)NC(=O)CNC(=O)[C@H](Cc1ccccc1)NC(=O)[C@H](CC(N)=O)NC(=O)[C@@H]1CCCN1C(=O)[C@H](CO)NC(=O)[C@H](CO)NC(=O)[C@H](Cc1c[nH]cn1)NC(=O)[C@H](CCCNC(=N)N)NC(=O)[C@H](CC(C)C)NC(=O)[C@H](Cc1ccccc1)NC(=O)[C@H](CC(N)=O)NC(=O)[C@H](C)NC(=O)[C@H](CC(C)C)NC(=O)[C@H](CCCNC(=N)N)NC(=O)[C@H](CCC(N)=O)NC(=O)[C@@H](NC(=O)[C@H](C)NC(=O)[C@@H]1CSSC[C@H](NC(=O)[C@@H](N)CCCCNC(=O)COCCOCCNC(=O)CC[C@H](NC(=O)CCCCCCCCCCCCCCCCCCC(=O)O)C(=O)O)C(=O)N[C@@H](CC(N)=O)C(=O)N[C@@H]([C@@H](C)O)C(=O)N[C@@H](C)C(=O)N[C@@H]([C@@H](C)O)C(=O)N1)[C@@H](C)O)C(=O)N1CCC[C@H]1C(=O)N[C@@H](CO)C(=O)N1CCC[C@H]1C(=O)N[C@H](C(=O)N[C@@H](CC(N)=O)C(=O)N[C@H](C(=O)NCC(=O)N1CCC[C@H]1C(=O)N[C@@H](CC(N)=O)C(=O)N[C@H](C(=O)N[C@@H](Cc1ccc(O)cc1)C(N)=O)[C@@H](C)O)C(C)C)[C@@H](C)O [Example 56] (H-K([AEEA-γGlu-C20 diacid])CNTATCATQRLANFLRHSSPNFGAIPSPTNVGPNTY-NH2; disulfide 2-7 (inferred); N-terminus assumed) | 42.6 |
| 15.7 | 15.7 | 15.7 | 15.7 | 15.7 | 45 | 15.7 | CC[C@H](C)[C@H](NC(=O)[C@H](C)NC(=O)CNC(=O)[C@H](Cc1ccccc1)NC(=O)[C@H](CC(N)=O)NC(=O)[C@@H]1CCCN1C(=O)[C@H](CO)NC(=O)[C@H](CO)NC(=O)[C@H](Cc1c[nH]cn1)NC(=O)[C@H](CCCNC(=N)N)NC(=O)[C@H](CC(C)C)NC(=O)[C@H](Cc1ccccc1)NC(=O)[C@H](CCC(=O)O)NC(=O)[C@H](C)NC(=O)[C@H](CC(C)C)NC(=O)[C@H](CCCNC(=N)N)NC(=O)[C@H](CCC(N)=O)NC(=O)[C@@H](NC(=O)[C@H](C)NC(=O)[C@@H]1CSSC[C@H](NC(=O)[C@H](CCCCN)NC(=O)CC[C@H](NC(=O)CCCCCCCCCCCCCCCCCCC(=O)O)C(=O)O)C(=O)N[C@@H](CC(N)=O)C(=O)N[C@@H]([C@@H](C)O)C(=O)N[C@@H](C)C(=O)N[C@@H]([C@@H](C)O)C(=O)N1)[C@@H](C)O)C(=O)N1CCC[C@H]1C(=O)N[C@@H](CO)C(=O)N[C@@H](CO)C(=O)N[C@H](C(=O)N[C@@H](CC(N)=O)C(=O)N[C@H](C(=O)NCC(=O)N[C@@H](CCCCN)C(=O)N[C@@H](CC(N)=O)C(=O)N[C@H](C(=O)N[C@@H](Cc1ccc(O)cc1)C(N)=O)[C@@H](C)O)C(C)C)[C@@H](C)O [Example 36] ({C20 diacid-γGlu}-KCNTATCATQRLAEFLRHSSPNFGAIPSSTNVGKNTY-NH2; disulfide 2-7 (inferred)) | – |
| 7.8 | – | 7.8 | 7.8 | – | 0 | – | CC[C@H](C)[C@H](NC(=O)[C@H](C)NC(=O)CNC(=O)[C@@H]1CCCN1C(=O)[C@H](CC(N)=O)NC(=O)[C@H](CC(N)=O)NC(=O)[C@H](CO)NC(=O)[C@H](CO)NC(=O)[C@H](Cc1c[nH]cn1)NC(=O)[C@H](CCCNC(=N)N)NC(=O)[C@H](CC(C)C)NC(=O)[C@H](Cc1ccccc1)NC(=O)[C@H](CCC(=O)O)NC(=O)[C@H](C)NC(=O)[C@H](CC(C)C)NC(=O)[C@H](CCCNC(=N)N)NC(=O)[C@H](CCC(N)=O)NC(=O)[C@@H](NC(=O)[C@H](C)NC(=O)[C@@H]1CSSC[C@H](NC(=O)[C@@H](N)CCCCNC(=O)CC[C@H](NC(=O)CC[C@H](NC(=O)CCCCCCCCCCCCCCCCCCC(=O)O)C(=O)O)C(=O)O)C(=O)N[C@@H](CC(N)=O)C(=O)N[C@@H]([C@@H](C)O)C(=O)N[C@@H](C)C(=O)N[C@@H]([C@@H](C)O)C(=O)N1)[C@@H](C)O)C(=O)N[C@@H](CC(C)C)C(=O)N[C@@H](CO)C(=O)N[C@@H](CO)C(=O)N[C@H](C(=O)N[C@@H](CC(N)=O)C(=O)N[C@H](C(=O)NCC(=O)N1CCC[C@H]1C(=O)N[C@@H](CCC(=O)O)C(=O)N[C@H](C(=O)N[C@@H](Cc1ccc(O)cc1)C(N)=O)[C@@H](C)O)C(C)C)[C@@H](C)O [Example 126] (H-K([γGlu-γGlu-C20 diacid])CNTATCATQRLAEFLRHSSNNPGAILSSTNVGPETY-NH2; disulfide 2-7 (inferred); N-terminus assumed) | – |

| SMILES | Ratio hCT/hAmylin binding [1, 3] | Ratio hCT/hAmylin binding [1, 4] | Ratio hCT/hAmylin binding [1, 5] | Ratio hCT/hAmylin binding [1, 6] | Ratio hCT/hAmylin binding [1, 7] | ThT pH 4.0 lag time (h) [2] [h] | Ratio hCT/hAmylin binding [1, 8] | Ratio hCT/hAmylin binding [1, 9] |
| --- | --- | --- | --- | --- | --- | --- | --- | --- |
| CC[C@H](C)[C@H](NC(=O)[C@H](C)NC(=O)CNC(=O)[C@H](Cc1ccccc1)NC(=O)[C@H](CC(N)=O)NC(=O)[C@@H]1CCCN1C(=O)[C@H](CO)NC(=O)[C@H](CO)NC(=O)[C@H](Cc1c[nH]cn1)NC(=O)[C@H](CCCNC(=N)N)NC(=O)[C@H](CC(C)C)NC(=O)[C@H](Cc1ccccc1)NC(=O)[C@H](CO)NC(=O)[C@H](C)NC(=O)[C@H](CC(C)C)NC(=O)[C@H](CCCNC(=N)N)NC(=O)[C@H](CCC(N)=O)NC(=O)[C@@H](NC(=O)[C@H](C)NC(=O)[C@@H]1CSSC[C@H](NC(=O)[C@@H](N)CCCCNC(=O)COCCOCCNC(=O)CC[C@H](NC(=O)CCCCCCCCCCCCCCCCCCC(=O)O)C(=O)O)C(=O)N[C@@H](CC(N)=O)C(=O)N[C@@H]([C@@H](C)O)C(=O)N[C@@H](C)C(=O)N[C@@H]([C@@H](C)O)C(=O)N1)[C@@H](C)O)C(=O)N1CCC[C@H]1C(=O)N[C@@H](CO)C(=O)N[C@@H](CO)C(=O)N[C@H](C(=O)N1CCC[C@H]1C(=O)N[C@H](C(=O)NCC(=O)N[C@@H](CO)C(=O)N[C@@H](CC(N)=O)C(=O)N[C@H](C(=O)N[C@@H](Cc1ccc(O)cc1)C(N)=O)[C@@H](C)O)C(C)C)[C@@H](C)O [Example 73] (H-K([AEEA-γGlu-C20 diacid])CNTATCATQRLASFLRHSSPNFGAIPSSTPVGSNTY-NH2; disulfide 2-7 (inferred)) | 51.7 | 51.7 | 51.7 | 51.7 | 51.7 | 12 | 51.7 | 51.7 |
